Experiments:
[1] = system: NIH 3T3 mouse fibroblasts; test: Decorin collagen gel contraction assay, NIH 3T3 cells; assay type: cell-based; conditions: for collagen gel contraction versus control level: 10 ng/ml PDGF, 20 ng/ml acidic FGF, without decorin
Protocol: NIH 3T3 mouse fibroblasts (ATCC #CRL 1658) and WI38 human fibroblasts (ATCC #CL75) were used in these assays and passaged in culture as prescribed.
Cells were collected by washing the cells with sterile PBS, then incubating the cells for 5 min at 37° C. with trypsin-EDTA (200 mg versene and 500 mg trypsin/liter Hank's balanced salt solution; Gibco/BRL; Gaithersburg MD). Following incubation, cells were removed by aspiration with a pipet and DMEM supplemented with 10% FBS (BioWhittaker; Walkersville Md.) was added to neutralize the trypsin. Cells were centrifuged for 8 min at 1200 rpm, decanted, washed 3× with serum-free DMEM and resuspended in serum-free DMEM to the following concentrations: NIH 3T3 cells, 3.0×10^6 cells/ml; WI38 cells, 1.0×10^6 cell/ml.
The following reagents were added on ice to generate a total of 24 gels: 3.6 ml 5× DMEM (Gibco/BRL), 1.0 ml 1M HEPES (Sigma), 0.74 ml 0.5M NaOH, 2.0 ml cell suspension in serum-free DMEM, 7.6 ml rat tail collagen I (3.81 mg/ml; Collaborative Research). The collagen mixture was quickly added to a mixture of 4.8 ml decorin and water to yield the appropriate decorin concentration and 0.7 ml was added to each well of a 24 well microtiter dish that previously had been coated with 2% bovine serum albumin in PBS. The gels were allowed to solidify for 1 hr at 37° C. in a humidified incubator, then were released from the edges of the well by tapping or by rimming with a pipet tip.
Gels were transferred aseptically using forceps from the microtiter plate into a Nunc six well plate. Three gels were transferred into each 33 mm well. Prior to transfer, each well received 1 ng/ml TGFβ (from porcine platelets; R&D Systems; Minneapolis Minn.). […] The plates were rocked in a humidified incubator at 37° C. and 7% CO2 for the length of the experiment. The area of the gels was measured daily using photographs from an image analyzer and planimetry.

CTT-18 cells = test: Peptide collagen gel contraction assay; assay type: cell-based, human; conditions: FIG. 4, gel area over time
Protocol: CTT-18 cells, which are a normal human colon fibroblast cell line available from ATCC (#1459-CRL), were used in the gel contraction assays. Subconfluent CTT-18 cells were harvested by trypsinization, neutralized with soybean trypsin inhibitor, then washed several times with serum-free Dulbecco's modified Eagle's medium (DMEM). The cells were resuspended at 5×10^6 cells/ml in DMEM.
The collagen solution was prepared by combining the following reagents in the stated order: 1× DMEM, 1× insulin/transferrin/selenium (ITS; Collaborative Research; Bedford Mass.), 25 mM HEPES, 2.5 mg/ml rat tail collagen I (Collaborative Research). The solution was adjusted to pH 7.4 using 2M NaOH and deionized water was added to the appropriate final volume. Finally, 5×10^4 cells/ml (DMEM) were added to the solution and 0.6 ml of the combined solution was added to each well of a 24 well plate. The solution was allowed to gel for 1 hr at 37° C.
Peptides were diluted to 4.5 mM in 1× DMEM/1× ITS/1× penicillin/1× streptomycin and the solution was adjusted to pH 7.4. Each gel was overlayed with 0.6 ml peptide solution and the gel periphery was rimmed to release the gel from the edge of the well. The gels were incubated at 37° C. and each gel area was monitored daily by planimetry using a computerized planimetry program (Digitize, Macintosh).
In addition to determining the area of a gel, a replicate gel for each experimental condition was examined each day for cell viability. To determine cell viability, the overlay media was removed and replaced with 4 mg/ml collagenase type 2 (Worthington Biochemical; Freehold N.J.) in collagen digestion buffer (0.13M NaCl, 0.01M Ca acetate, 0.02M HEPES, pH 7.2). The sample was incubated at 37° C. until digestion was complete (about 1 hr). The solution was centrifuged at 3000 rpm in a microcentrifuge for 5 min and the pellet resuspended in trypsin/EDTA and incubated for 20 min at 37° C. The solution again was centrifuged, the pellet resuspended in 40 μl 0.4% trypan blue and the viable cells were counted in a hemocytometer. In general, the variations in cell viability were slight, and it was unnecessary to correct the gel contraction results due to significant differences in cell viability.

collagen gels = conditions: Grinnell et al. 1989; U.S. Pat. No. 4,957,902; cited from earlier work
collagen [2] = test: Binding to collagen
collagen [3] = test: Effect on collagen fibril structure

Molecule: acidic FGF: acidic fibroblast-derived growth factor (R & D Systems)
- collagen gel contraction versus control level ([1]; 1 ng/ml TGFβ, FIG. 6): increased the amount of collagen gel contraction above the control level

Molecule: TGFβ: growth factor from porcine platelets (R&D Systems) that stimulates contraction
- collagen gel contraction versus control level ([1]; 1 ng/ml TGFβ, FIG. 6): increased the amount of collagen gel contraction above the control level
- contraction of a collagen/NIH 3T3 gel ([1]; 1.0 ng/ml TGFβ, 24 hr, 0 μg/ml decorin): approximately 60%

Molecule: tri-arginine
- inhibition of gel contraction (CTT-18 cells): did not inhibit gel contraction
- inhibition of gel contraction (CTT-18 cells; listed as Arg 3): do not inhibit collagen gel contraction

Molecule: GRGESP
- effect on contraction of collagen gels (collagen gels): inhibited contraction of collagen gels

Molecule: PDGF
- collagen gel contraction versus control level ([1]; 1 ng/ml TGFβ, FIG. 6): increased the amount of collagen gel contraction above the control level

Molecule: di-arginine
- inhibition of gel contraction (CTT-18 cells): did not inhibit gel contraction
- inhibition of gel contraction (CTT-18 cells; listed as Arg 2): do not inhibit collagen gel contraction

Molecule: N=C(N)NCCC[C@H](N)C(=O)O [mono-arginine, arginine]
- inhibition of gel contraction (CTT-18 cells): did not inhibit gel contraction
- inhibition of gel contraction (CTT-18 cells; listed as Arg 1): do not inhibit collagen gel contraction

B1: decorin: proteoglycan produced by fibroblasts, core protein about 40 kDa; produced in decorin-expressing CHO cells (protein, UniProt P07585 31-359, looked up)
Decorin: DEASGIGPEVPDDRDFEPSLGPVCPFRCQCHLRVVQCSDLGLDKVPKDLPPDTTLLDLQNNKITEIKDGDFKNLKNLHALILVNNKISKVSPGAFTPLVKLERLYLSKNQLKELPEKMPKTLQELRAHENEITKVRKVTFNGLNQMIVIELGTNPLKSSGIENGAFQGMKKLSYIRIADTNITSIPQGLPPSLTELHLDGNKISRVDAASLKGLNNLAKLGLSFNSISAVDNGSLANTPHLRELHLDNNKLTRVPGGLAEHKYIQVVYLHNNNISVVGSSDFCPPGHNTKKASYSGVSLFSNPVQYWEIQPSTFRCVYVRSAIQLGNYK
- gel contraction in the presence of growth factors ([1]; 200 μg decorin per ml gel, 1 ng/ml TGFβ, 10 ng/ml PDGF or 20 ng/ml acidic FGF, FIG. 6): reduced or inhibited the level of gel contraction
- gel contraction at 200 μg per ml decorin ([1]; collagen/NIH 3T3 gel, 1 ng/ml TGFβ, 24 hr): no gel contraction was observed
- gel contraction with increasing concentrations of decorin in the gel ([1]; collagen/NIH 3T3 gel, 1 ng/ml TGFβ, 24 hr, FIG. 5): reduced or inhibited gel contraction

B2: Decorin that had been reduced and alkylated: decorin incubated with dithiothreitol, then iodoacetamide (protein, UniProt P07585 31-359, looked up)
Decorin: B1 Decorin
modifications: reduced and alkylated
notes: decorin incubated with dithiothreitol, then iodoacetamide
- gel contraction ([1]; reduced and alkylated form, data not shown): inhibited gel contraction

B3: denatured decorin: denatured decorin, compared with native/intact decorin (protein, UniProt P07585 31-359, looked up)
Decorin: B1 Decorin
modifications: denatured
- collagen binding (collagen [2]): binds collagen to the same extent as nondenatured decorin
- effect on fibril structure (collagen [3]): does not affect fibril structure
- inhibition of gel contraction compared with intact decorin ([1]; cells not given): retains some ability to inhibit gel contraction

B4: biglycan: proteoglycan with core protein sequence closely related to decorin (protein, UniProt P21810 38-368, looked up)
Biglycan: DEEASGADTSGVLDPDSVTPTYSAMCPFGCHCHLRVVQCSDLGLKSVPKEISPDTTLLDLQNNDISELRKDDFKGLQHLYALVLVNNKISKIHEKAFSPLRKLQKLYISKNHLVEIPPNLPSSLVELRIHDNRIRKVPKGVFSGLRNMNCIEMGGNPLENSGFEPGAFDGLKLNYLRISEAKLTGIPKDLPETLNELHLDHNKIQAIELEDLLRYSKLYRLGLGHNQIRMIENGSLSFLPTLRELHLDNNKLARVPSGLPDLKLLQVVYLHSNNITKVGVNDFCPMGFGVKRAYYNGISLFNNPVPYWEVQPATFRCVTDRLAIQFGNYKK
- collagen binding (collagen [2]): can bind to collagen in the gel contraction assays
